Data: patent US10414811B2, “Protease-resistant lipidated GLP-1 analogs” (MEDIMMUNE LIMITED, priority 2015, dated 2019)
Like-named read-outs stand apart in the source and are kept apart here. Numbered stars: 1 amine (or outer) side, 2 acyl side, 3 side chain; on linkers, the order of the positions; unused ones are H or OH. Square brackets hold non-standard residues; d marks the D form. Side chains are listed from the residue outwards. Peptide text beside a SMILES is read from it. * marks the point of attachment. C16 diacid = O=C(O)CCCCCCCCCCCCCCC(=O)*; γGlu = O=C(O)[C@H](CCC(=O)[*:2])N[*:1]; αMeF = C[C@](N)(Cc1ccccc1)C(=O)O; αMeK = C[C@](N)(CCCCN)C(=O)O; αMeS = C[C@](N)(CO)C(=O)O; AEEA = NCCOCCOCC(=O)O; Aib = CC(C)(N)C(=O)O

Experiments:
Format in all cases: cell-based
[1] = biological target: T1, human GLP-1 receptor (GLP-1R) (Homo sapiens, UniProt P43220); assay: cAMP assay, human GLP-1R cells
T1 construct: expressed in transfected cells
T1 sequence (P43220 24-463): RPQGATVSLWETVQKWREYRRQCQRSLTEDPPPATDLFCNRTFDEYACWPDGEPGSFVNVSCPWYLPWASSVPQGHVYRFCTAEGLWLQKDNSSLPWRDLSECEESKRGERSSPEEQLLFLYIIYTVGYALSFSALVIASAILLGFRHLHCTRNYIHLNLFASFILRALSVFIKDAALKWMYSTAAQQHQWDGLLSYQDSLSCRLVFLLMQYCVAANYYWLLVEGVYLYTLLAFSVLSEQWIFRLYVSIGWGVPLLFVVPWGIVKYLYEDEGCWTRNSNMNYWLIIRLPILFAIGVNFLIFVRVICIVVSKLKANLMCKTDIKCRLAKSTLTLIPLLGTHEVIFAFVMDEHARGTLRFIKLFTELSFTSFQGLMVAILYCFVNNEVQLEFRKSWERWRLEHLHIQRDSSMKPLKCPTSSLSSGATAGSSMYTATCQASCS
In short: (§1)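 Peptide-stimulated cAMP measured by two-step HTRF after a 30 min room-temperature incubation with receptor-expressing cells (hGLP-1R, hGIPR at 1×10^5 cells/ml; hGCGR at 2×10^5 cells/ml). Duplicate dilutions; EC50 from 4-parameter logistic fit of % Delta F.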

[2] = biological target: T2, human glucagon receptor (GCGR) (Homo sapiens, UniProt P47871); assay: cAMP assay, human GCGR cells
T2 construct: expressed in transfected cells
T2 sequence (P47871 26-477): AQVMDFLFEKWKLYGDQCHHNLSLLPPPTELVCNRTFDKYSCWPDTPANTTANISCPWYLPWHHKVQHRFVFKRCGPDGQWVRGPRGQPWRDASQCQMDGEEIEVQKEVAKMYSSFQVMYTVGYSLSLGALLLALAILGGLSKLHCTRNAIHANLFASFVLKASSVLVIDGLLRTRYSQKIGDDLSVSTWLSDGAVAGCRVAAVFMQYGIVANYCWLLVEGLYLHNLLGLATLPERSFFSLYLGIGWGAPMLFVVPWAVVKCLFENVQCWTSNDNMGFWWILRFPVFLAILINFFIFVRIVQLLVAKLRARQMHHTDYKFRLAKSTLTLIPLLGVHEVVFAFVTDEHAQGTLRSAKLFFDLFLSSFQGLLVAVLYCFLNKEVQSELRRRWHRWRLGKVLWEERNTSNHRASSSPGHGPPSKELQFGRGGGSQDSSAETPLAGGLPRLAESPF
In short: as §1

[3] = biological target: T3, human glucose-dependent insulinotropic peptide receptor (GIPR) (Homo sapiens, UniProt P48546); assay: cAMP assay, human GIPR cells
T3 construct: expressed in transfected cells
T3 sequence (P48546 22-466): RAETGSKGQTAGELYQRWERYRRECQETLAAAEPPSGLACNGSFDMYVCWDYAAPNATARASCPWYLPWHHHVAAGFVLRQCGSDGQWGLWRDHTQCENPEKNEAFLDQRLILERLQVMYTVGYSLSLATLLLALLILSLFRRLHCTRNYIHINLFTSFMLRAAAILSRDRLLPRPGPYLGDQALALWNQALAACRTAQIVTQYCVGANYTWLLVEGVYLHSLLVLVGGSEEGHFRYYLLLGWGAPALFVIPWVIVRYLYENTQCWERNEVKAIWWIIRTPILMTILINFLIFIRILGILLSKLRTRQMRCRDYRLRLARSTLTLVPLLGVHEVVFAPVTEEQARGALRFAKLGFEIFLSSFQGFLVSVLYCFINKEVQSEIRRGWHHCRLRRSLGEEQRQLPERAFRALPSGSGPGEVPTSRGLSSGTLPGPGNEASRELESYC
In short: as §1

[4] = cAMP assay, first determination (n1), read-out: Primary assay EC50 GLP-1R n1
[5] = cAMP assay, second determination (n2), read-out: Primary assay EC50 GLP-1R n2
[6] = mean of n1 and n2, read-out: Mean pM GLP-1R
[7] = cAMP assay, first determination (n1), read-out: Primary assay EC50 Gluc-R (n1)
[8] = cAMP assay, second determination (n2), read-out: Primary assay EC50 Gluc-R (n2)
[9] = cAMP assay, first determination (n1), read-out: Primary assay EC50 GIP-R (n1)
[10] = cAMP assay, second determination (n2), read-out: Primary assay EC50 GIP-R (n2)

| Structure (SMILES) | EC50 ([1]; bis-lipidated peptides, mean of n1 and n2, read-out: Primary assay EC50 Mean pM GLP-1R) [pM] | EC50 ([1]; bis-lipidated peptides, replicate n1, read-out: Primary assay EC50 GLP-1R n1) [pM] | EC50 ([1]; bis-lipidated peptides, replicate n2, read-out: Primary assay EC50 GLP-1R n2) [pM] | EC50 ([2]; bis-lipidated peptides, first replicate, read-out: Primary assay EC50 Gluc-R (n1)) [nM] | EC50 ([3]; bis-lipidated peptides, first replicate, read-out: Primary assay EC50 GIP-R (n1)) [nM] | EC50 [1, 4] [pM] | EC50 [1, 5] [pM] | EC50 [1, 6] [pM] | EC50 [2, 7] [nM] | EC50 [2, 8] [nM] | EC50 [3, 9] [nM] | EC50 [3, 10] [nM] |
| --- | --- | --- | --- | --- | --- | --- | --- | --- | --- | --- | --- | --- |
| CC[C@H](C)[C@H](NC(=O)[C@H](Cc1ccccc1)NC(=O)[C@H](CCC(=O)O)NC(=O)[C@](C)(CCCCN)NC(=O)[C@H](C)NC(=O)[C@H](C)NC(=O)[C@H](CCC(=O)O)NC(=O)CNC(=O)[C@H](CCC(=O)O)NC(=O)[C@H](CC(C)C)NC(=O)[C@H](Cc1ccc(O)cc1)NC(=O)[C@H](CO)NC(=O)[C@H](CO)NC(=O)[C@H](CCCCNC(=O)COCCOCCNC(=O)COCCOCCNC(=O)CC[C@H](NC(=O)CCCCCCCCCCCCCCC(=O)O)C(=O)O)NC(=O)[C@H](CC(=O)O)NC(=O)[C@H](CO)NC(=O)[C@@H](NC(=O)[C@](C)(Cc1ccccc1)NC(=O)[C@H](CO)NC(=O)CNC(=O)[C@H](CCC(=O)O)NC(=O)C(C)(C)NC(=O)[C@@H](N)Cc1c[nH]cn1)[C@@H](C)O)C(=O)N[C@@H](C)C(=O)N[C@@H](CCCCNC(=O)COCCOCCNC(=O)COCCOCCNC(=O)CC[C@H](NC(=O)CCCCCCCCCCCCCCC(=O)O)C(=O)O)C(=O)N[C@H](C(=O)N[C@H](C(=O)N[C@@H](CCC(=O)O)C(=O)NCC(=O)NCC(N)=O)C(C)C)C(C)C [compound 260] (H-H[Aib]EGS[αMeF]TSDK([AEEA-AEEA-γGlu-C16 diacid])SSYLEGEAA[αMeK]EFIAK([AEEA-AEEA-γGlu-C16 diacid])VVEGG-NH2; N-terminus assumed) | 388 | 334 | 443 | ≥ 21.9 | ≥ 21.9 | – | – | – | – | – | – | – |
| CC[C@H](C)[C@H](NC(=O)[C@H](Cc1ccccc1)NC(=O)[C@H](CCC(=O)O)NC(=O)[C@H](CCCCN)NC(=O)[C@H](C)NC(=O)[C@H](C)NC(=O)[C@H](CCC(N)=O)NC(=O)CNC(=O)[C@H](CCC(=O)O)NC(=O)[C@H](CC(C)C)NC(=O)[C@H](Cc1ccc(O)cc1)NC(=O)[C@H](CO)NC(=O)C(C)(C)NC(=O)[C@@H](NC(=O)[C@H](CC(=O)O)NC(=O)C(C)(C)NC(=O)[C@@H](NC(=O)[C@H](Cc1ccccc1)NC(=O)[C@@H](NC(=O)CNC(=O)[C@H](CCC(=O)O)NC(=O)C(C)(C)NC(=O)[C@@H](N)Cc1c[nH]cn1)[C@@H](C)O)[C@@H](C)O)C(C)C)C(=O)N[C@@H](C)C(=O)N[C@@H](Cc1c[nH]c2ccccc12)C(=O)N[C@@H](CC(C)C)C(=O)N[C@H](C(=O)N[C@@H](CCCCN)C(=O)NCC(=O)N[C@@H](CCCNC(=N)N)C(N)=O)C(C)C [compound 24] (H-H[Aib]EGTFT[Aib]DV[Aib]SYLEGQAAKEFIAWLVKGR-NH2) | – | – | – | – | – | 3300 | 7900 | 5600 | ≥ 740 | ≥ 740 | ≥ 740 | ≥ 740 |
| CCCCCCCCCCCC(=O)NCCCCCC(=O)NCCCCCC(=O)NCCCCCC(=O)NCCCC[C@H](NC(=O)[C@H](C)NC(=O)[C@H](C)NC(=O)[C@H](CCC(=O)O)NC(=O)CNC(=O)[C@H](CCC(=O)O)NC(=O)[C@H](CC(C)C)NC(=O)[C@](C)(Cc1ccccc1)NC(=O)[C@H](CO)NC(=O)[C@](C)(CO)NC(=O)[C@@H](NC(=O)[C@H](CC(=O)O)NC(=O)[C@H](CO)NC(=O)[C@@H](NC(=O)[C@](C)(Cc1ccccc1)NC(=O)[C@H](CO)NC(=O)CNC(=O)[C@H](CCC(=O)O)NC(=O)C(C)(C)NC(=O)[C@@H](N)Cc1c[nH]cn1)[C@@H](C)O)C(C)C)C(=O)N[C@@H](CCC(=O)O)C(=O)N[C@@](C)(Cc1ccccc1)C(=O)N[C@H](C(=O)N[C@@H](C)C(=O)N[C@@](C)(Cc1ccccc1)C(=O)N[C@H](C(=O)N[C@H](C(=O)N[C@@](C)(CCCCN)C(=O)NCC(=O)NCC(N)=O)C(C)C)C(C)C)[C@@H](C)CC [compound 133] | – | – | – | – | – | 34 | 25 | 29.4 | ≥ 27 | ≥ 27 | ≥ 27 | ≥ 27 |
| CC[C@H](C)[C@H](NC(=O)[C@](C)(Cc1ccccc1)NC(=O)[C@H](CCC(=O)O)NC(=O)[C@](C)(CCCCN)NC(=O)[C@H](C)NC(=O)[C@H](C)NC(=O)[C@H](CCC(=O)O)NC(=O)CNC(=O)[C@H](CCC(=O)O)NC(=O)[C@H](CC(C)C)NC(=O)[C@](C)(Cc1ccccc1)NC(=O)[C@H](CO)NC(=O)[C@](C)(CO)NC(=O)[C@@H](NC(=O)[C@H](CC(=O)O)NC(=O)[C@@H](NC(=O)[C@@H](NC(=O)[C@](C)(Cc1ccccc1)NC(=O)[C@H](CO)NC(=O)CNC(=O)[C@H](CCC(=O)O)NC(=O)C(C)(C)NC(=O)[C@@H](N)Cc1c[nH]cn1)[C@@H](C)O)C(C)C)C(C)C)C(=O)N[C@@H](C)C(=O)N[C@@](C)(Cc1ccccc1)C(=O)N[C@H](C(=O)N[C@H](C(=O)N[C@@](C)(CCCCN)C(=O)NCC(=O)NCC(N)=O)C(C)C)C(C)C [compound 30] (H-H[Aib]EGS[αMeF]TVDV[αMeS]S[αMeF]LEGEAA[αMeK]E[αMeF]IA[αMeF]VV[αMeK]GG-NH2; N-terminus assumed) | – | – | – | – | – | 80000 | 97000 | 88600 | ≥ 100 | ≥ 100 | ≥ 100 | ≥ 100 |
| CC[C@H](C)[C@H](NC(=O)[C@](C)(Cc1ccccc1)NC(=O)[C@H](CCC(=O)O)NC(=O)[C@H](CCCCNC(=O)CC[C@H](NC(=O)CC[C@H](NC(=O)CC[C@H](NC(=O)CCCCCCCCCCCCCCCCC(=O)O)C(=O)O)C(=O)O)C(=O)O)NC(=O)[C@H](C)NC(=O)[C@H](C)NC(=O)[C@H](CCC(=O)O)NC(=O)CNC(=O)[C@H](CCC(=O)O)NC(=O)[C@H](CC(C)C)NC(=O)[C@](C)(Cc1ccccc1)NC(=O)[C@H](CO)NC(=O)[C@](C)(CO)NC(=O)[C@@H](NC(=O)[C@H](CC(=O)O)NC(=O)[C@H](CO)NC(=O)[C@@H](NC(=O)[C@](C)(Cc1ccccc1)NC(=O)[C@H](CO)NC(=O)CNC(=O)[C@H](CCC(=O)O)NC(=O)C(C)(C)NC(=O)[C@@H](N)Cc1c[nH]cn1)[C@@H](C)O)C(C)C)C(=O)N[C@@H](C)C(=O)N[C@@](C)(Cc1ccccc1)C(=O)N[C@H](C(=O)N[C@H](C(=O)N[C@@](C)(CCCCN)C(=O)NCC(=O)NCC(N)=O)C(C)C)C(C)C [compound 157] | – | – | – | – | – | 240 | – | – | ≥ 26 | ≥ 26 | ≥ 26 | ≥ 26 |
| CC[C@H](C)[C@H](NC(=O)[C@](C)(Cc1ccccc1)NC(=O)[C@H](CCC(=O)O)NC(=O)[C@](C)(CCCCN)NC(=O)[C@H](C)NC(=O)[C@H](C)NC(=O)[C@H](CCC(=O)O)NC(=O)CNC(=O)[C@H](CCC(=O)O)NC(=O)[C@H](CC(C)C)NC(=O)[C@](C)(Cc1ccccc1)NC(=O)[C@H](CO)NC(=O)[C@](C)(CO)NC(=O)[C@@H](NC(=O)[C@H](CC(=O)O)NC(=O)CNC(=O)[C@@H](NC(=O)[C@](C)(Cc1ccccc1)NC(=O)[C@H](CO)NC(=O)CNC(=O)[C@H](CCC(=O)O)NC(=O)C(C)(C)NC(=O)[C@@H](N)Cc1c[nH]cn1)[C@@H](C)O)C(C)C)C(=O)N[C@@H](C)C(=O)N[C@@](C)(Cc1ccccc1)C(=O)N[C@H](C(=O)N[C@H](C(=O)N[C@@](C)(CCCCN)C(=O)NCC(=O)NCC(N)=O)C(C)C)C(C)C [compound 25] (H-H[Aib]EGS[αMeF]TGDV[αMeS]S[αMeF]LEGEAA[αMeK]E[αMeF]IA[αMeF]VV[αMeK]GG-NH2) | – | – | – | – | – | 500 | 590 | 544 | ≥ 100 | 22 | ≥ 100 | ≥ 100 |
